10 compounds from ChEMBL document CHEMBL1201862, “PubChem BioAssay data set” (2004) can be followed below.

Some test systems named below: A549; CAKI-1; COLO 205; EKVX; HL-60; HT-29; K562; M14; MCF7; MDA-MB-231; MDA-N; NCI-H23; NCI-H460; NCI-H522; OVCAR-5; RXF 393; SK-MEL-28; SN12C; SNB-75; UO-31.
Holding throughout (experiment): inhibition of tumour cell growth, NCI panel, 48 h

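1) Cells in 96-well plates. 2) Compound, 48 h, 5 concentrations. 3) Linear interpolation between surrounding doses. 4) Unreached endpoint = highest concentration. Here, GI50 denotes the concentration required for 50% inhibition of growth.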 The source made the active and inactive calls. No stated cut-off is given here; in the data, active = GI50 up to about 1.1 µM and inactive = higher.

On to `COc1c2occc2c(N)c2ccc(=O)oc12`, for which the GI50 in the assay with A549 was > 100 µM (inactive); with CAKI-1 it was > 100 µM (inactive); with COLO 205, > 100 µM (inactive); in the assay with EKVX it was 51.9 µM (inactive); in the assay on HL-60, 49.2 µM (inactive); in the assay with HT-29 it was > 100 µM (inactive). Further, the GI50 in the assay on K562, in the assay with M14, in the assay with MCF7, in the assay on MDA-MB-231, in the assay with MDA-N and with NCI-H23 was > 100 µM (inactive) each time. Moreover, the GI50 in the assay on NCI-H460 was > 100 µM (inactive); with NCI-H522 it was 75 µM (inactive); in the assay with OVCAR-5, > 100 µM (inactive); in the assay with RXF 393 it was 15.3 µM (inactive); in the assay on SK-MEL-28, > 100 µM (inactive); with SN12C, > 100 µM (inactive). Besides, the figures for the GI50 with SNB-75 and in the assay on UO-31 were 17.2 µM (inactive) and > 100 µM (inactive), respectively.
Consider `Cc1ccc(C)c(C2NC(=O)c3ccccc3N2)c1` (stereo not given), for which the GI50 is 1.79 µM (inactive) in the assay with A549; 3.27 µM (inactive) in the assay with CAKI-1; 0.703 µM (active) in the assay with COLO 205; 5.07 µM (inactive) with EKVX; 0.118 µM (active) in the assay with HL-60; 0.445 µM (active) in the assay with HT-29. The GI50 was 0.274 µM (active) in the assay with K562; 0.719 µM (active) with M14; 0.454 µM (active) with MCF7; 10.3 µM (inactive) in the assay with MDA-MB-231; 0.0986 µM (active) with MDA-N; 6.04 µM (inactive) in the assay on NCI-H23. For the same compound, the GI50 in the assay on NCI-H460 was 0.916 µM (active); with NCI-H522, 0.689 µM (active); in the assay with OVCAR-5, 6.18 µM (inactive); with RXF 393 it was 1.95 µM (inactive); in the assay on SK-MEL-28, 12.5 µM (inactive); in the assay on SN12C, 4.69 µM (inactive). For the same compound, the GI50 in the assay with SNB-75 was 0.423 µM (active); in the assay with UO-31, 7.71 µM (inactive).
As to `CC(C)=CC[S+]([O-])c1ccccc1NC1=CC(=O)CC(C)(C)C1` (stereo not given), the GI50 with A549, in the assay with CAKI-1, in the assay on COLO 205, with EKVX, in the assay on HL-60 and in the assay with HT-29 was > 100 µM (inactive) in each case. In addition, the GI50 in the assay on K562, with M14, in the assay with MCF7, with MDA-MB-231, in the assay with MDA-N and in the assay on NCI-H23 was > 100 µM (inactive) each time. Besides, the GI50 in the assay on NCI-H460, in the assay on NCI-H522, with OVCAR-5, with RXF 393, in the assay on SK-MEL-28 and in the assay with SN12C was > 100 µM (inactive) each time. The GI50 in the assay on SNB-75 and in the assay on UO-31 was > 100 µM (inactive) each time.
`COc1ccc2nc3cccc([N+](=O)[O-])c3c(NCCO)c2c1`: the GI50 in the assay with A549 was 0.0198 µM (active); in the assay with CAKI-1, 0.0183 µM (active); in the assay with COLO 205, 0.00527 µM (active); with EKVX, 0.0238 µM (active); in the assay on HL-60 it was 0.0148 µM (active); with HT-29, 0.00615 µM (active). Moreover, the GI50 with K562 is 0.00199 µM (active); in the assay with M14 it was 0.00762 µM (active); in the assay on MCF7, 0.018 µM (active); in the assay on MDA-MB-231 it was 0.0138 µM (active); in the assay with MDA-N, 0.00895 µM (active); in the assay on NCI-H23, 0.0219 µM (active). Further, the GI50 is 0.00378 µM (active) with NCI-H460; 0.017 µM (active) in the assay with NCI-H522; 0.0203 µM (active) in the assay with OVCAR-5; 0.0126 µM (active) with RXF 393; 0.0277 µM (active) with SK-MEL-28; 0.019 µM (active) in the assay on SN12C. Besides, the GI50 in the assay on SNB-75 was 0.0942 µM (active); with UO-31, 0.0218 µM (active).
For the compound `O=C1NC2(CCNCC2)Oc2ccccc21`, the GI50 in the assay on A549, in the assay with CAKI-1, in the assay with COLO 205, in the assay on EKVX, in the assay with HL-60 and in the assay with HT-29 was > 100 µM (inactive) each time. Also, the GI50 with K562, with M14, in the assay with MCF7, in the assay on MDA-MB-231, in the assay with MDA-N and with NCI-H23 was > 100 µM (inactive) throughout. The GI50 in the assay on NCI-H460 is > 100 µM (inactive); in the assay on NCI-H522, > 100 µM (inactive); in the assay with OVCAR-5, > 100 µM (inactive); in the assay with RXF 393 it was 64.1 µM (inactive); in the assay with SK-MEL-28, > 100 µM (inactive); in the assay with SN12C, > 100 µM (inactive). Also, the GI50 in the assay with SNB-75 and with UO-31 was > 100 µM (inactive) throughout.
`CC1OC(O)CC(N(C)C)C1O.CC1OC(O)CCC1O.CCC1CC(O)c2c(O)c3c(c(O)c2C1O)C(=O)c1cccc(O)c1C3=O` (stereo not given): the GI50 is 0.0313 µM (active) in the assay with A549; 0.0156 µM (active) with CAKI-1; 0.0209 µM (active) in the assay with COLO 205; 0.0281 µM (active) in the assay on EKVX; 0.0305 µM (active) in the assay with HL-60; 0.0126 µM (active) in the assay with HT-29. The GI50 is 0.00597 µM (active) in the assay on K562; 0.0188 µM (active) in the assay on M14; 0.0325 µM (active) with MCF7; 0.0275 µM (active) with MDA-MB-231; 0.0284 µM (active) with MDA-N; 0.0301 µM (active) in the assay with NCI-H23. In addition, the GI50 in the assay on NCI-H460 was 0.00486 µM (active); with NCI-H522, 0.0121 µM (active); in the assay on OVCAR-5, 0.0375 µM (active); with RXF 393, 0.0039 µM (active); in the assay on SK-MEL-28 it was 0.0266 µM (active); with SN12C, 0.0353 µM (active). The GI50 in the assay with SNB-75 was 0.0136 µM (active); in the assay with UO-31 it was 0.0114 µM (active).
Turning to `CC1CC2=C(C1)C(C1(C)C(=O)CC3C(C1=O)C3(C)C)C(C)C2=O` (stereo not given), the GI50 in the assay with A549, in the assay on CAKI-1, with COLO 205, with EKVX, in the assay with HL-60 and in the assay on HT-29 was > 100 µM (inactive) throughout. The GI50 in the assay with K562, with M14, in the assay on MCF7, in the assay with MDA-MB-231, in the assay with MDA-N and in the assay with NCI-H23 was > 100 µM (inactive) in each case. Further, the GI50 with NCI-H460, with NCI-H522, in the assay on OVCAR-5, in the assay on RXF 393, with SK-MEL-28 and in the assay with SN12C was > 100 µM (inactive) in each case. Also, the values for the GI50 in the assay with SNB-75 and in the assay with UO-31 were > 100 µM (inactive) and 99.5 µM (inactive), respectively.
Consider `CC(C)C(O)(C(=O)OCN1C(=O)C2C3C=CC(C2C1=O)C1C2C(=O)N(COC(=O)C(O)(C(C)C)C(C)O)C(=O)C2C31)C(C)O` (stereo not given), for which the GI50 in the assay on A549, in the assay with CAKI-1, in the assay on COLO 205, in the assay with EKVX, in the assay with HL-60 and in the assay on HT-29 was > 100 µM (inactive) throughout. Also, the GI50 with K562, in the assay on M14, with MCF7, in the assay with MDA-MB-231, in the assay on MDA-N and in the assay with NCI-H23 was > 100 µM (inactive) throughout. In addition, the GI50 with NCI-H460, in the assay on NCI-H522, in the assay on OVCAR-5, in the assay with RXF 393, in the assay on SK-MEL-28 and in the assay with SN12C was > 100 µM (inactive) each time. Also, the GI50 with SNB-75 is 0.0275 µM (active); with UO-31, > 100 µM (inactive).
For the compound `O=C(CCCN1CCC2(CC1)OC(=O)N(c1ccccc1)C2=O)c1ccccc1`, the GI50 in the assay with A549, in the assay on CAKI-1, in the assay on COLO 205, with EKVX, with HL-60 and in the assay on HT-29 was > 100 µM (inactive) each time. The GI50 with K562 was > 100 µM (inactive); in the assay on M14 it was > 100 µM (inactive); in the assay with MCF7, > 100 µM (inactive); in the assay on MDA-MB-231, 35.5 µM (inactive); with MDA-N, > 100 µM (inactive); in the assay on NCI-H23 it was > 100 µM (inactive). The GI50 in the assay on NCI-H460, with NCI-H522, with OVCAR-5, in the assay on RXF 393, with SK-MEL-28 and with SN12C was > 100 µM (inactive) in each case. Also, the values for the GI50 with SNB-75 and with UO-31 were > 100 µM (inactive) and 27.8 µM (inactive), respectively.
Regarding `CC(C)(C)OC(=O)NC(Cc1ccc([N+](=O)[O-])cc1)C(=O)NC(CCCCNC(=O)OCc1ccccc1)C(=O)ON1C(=O)CCC1=O` (stereo not given), the GI50 is > 100 µM (inactive) in the assay with A549; > 100 µM (inactive) in the assay with CAKI-1; > 100 µM (inactive) in the assay on COLO 205; > 100 µM (inactive) with EKVX; 78.3 µM (inactive) in the assay with HL-60; > 100 µM (inactive) in the assay on HT-29. For the same compound, the GI50 in the assay with K562 is 14.4 µM (inactive); with M14 it was 70.3 µM (inactive); with MCF7, > 100 µM (inactive); with MDA-MB-231 it was 43.8 µM (inactive); in the assay on MDA-N, > 100 µM (inactive); in the assay with NCI-H23, > 100 µM (inactive). The GI50 was > 100 µM (inactive) in the assay on NCI-H460; > 100 µM (inactive) in the assay with NCI-H522; > 100 µM (inactive) in the assay on OVCAR-5; > 100 µM (inactive) in the assay on RXF 393; > 100 µM (inactive) with SK-MEL-28; 70.6 µM (inactive) in the assay on SN12C. In addition, the GI50 in the assay with SNB-75 and with UO-31 was > 100 µM (inactive) throughout.
